# According to the NIST ThermoML archive (doi:10.1021/je050175u):
# ± gives the expanded uncertainty stated by the source.
# Assay: excess molar enthalpy (molar enthalpy of mixing); xn = mol fraction of the nth substance listed
# Settings: Liquid, Flow calorimetry
# [1] = 298.15 K, 10000 kPa, x1 = 0.749
# [2] = 298.15 K, 10000 kPa, x1 = 0.799
smiles,measurement,setting,value
COC(C)=O [methyl ethanoate] + CCCO,excess molar enthalpy,"298.15 K, 5000 kPa, x1 = 0.051",0.0748 ± 0.00172 kcal/mol
same,excess molar enthalpy,"298.15 K, 5000 kPa, x1 = 0.099",0.143 ± 0.0021 kcal/mol
same,excess molar enthalpy,"298.15 K, 5000 kPa, x1 = 0.149",0.201 ± 0.00263 kcal/mol
same,excess molar enthalpy,"298.15 K, 5000 kPa, x1 = 0.199",0.248 ± 0.00287 kcal/mol
same,excess molar enthalpy,"298.15 K, 5000 kPa, x1 = 0.251",0.287 ± 0.00335 kcal/mol
same,excess molar enthalpy,"298.15 K, 5000 kPa, x1 = 0.3",0.316 ± 0.00359 kcal/mol
same,excess molar enthalpy,"298.15 K, 5000 kPa, x1 = 0.349",0.338 ± 0.00359 kcal/mol
same,excess molar enthalpy,"298.15 K, 5000 kPa, x1 = 0.4",0.354 ± 0.00382 kcal/mol
same,excess molar enthalpy,"298.15 K, 5000 kPa, x1 = 0.451",0.363 ± 0.00382 kcal/mol
same,excess molar enthalpy,"298.15 K, 5000 kPa, x1 = 0.501",0.364 ± 0.00382 kcal/mol
same,excess molar enthalpy,"298.15 K, 5000 kPa, x1 = 0.551",0.358 ± 0.00382 kcal/mol
same,excess molar enthalpy,"298.15 K, 5000 kPa, x1 = 0.6",0.347 ± 0.00382 kcal/mol
same,excess molar enthalpy,"298.15 K, 5000 kPa, x1 = 0.65",0.33 ± 0.00359 kcal/mol
same,excess molar enthalpy,"298.15 K, 5000 kPa, x1 = 0.701",0.305 ± 0.00335 kcal/mol
same,excess molar enthalpy,"298.15 K, 5000 kPa, x1 = 0.749",0.273 ± 0.00311 kcal/mol
same,excess molar enthalpy,"298.15 K, 5000 kPa, x1 = 0.8",0.236 ± 0.00263 kcal/mol
same,excess molar enthalpy,"298.15 K, 5000 kPa, x1 = 0.85",0.191 ± 0.00215 kcal/mol
same,excess molar enthalpy,"298.15 K, 5000 kPa, x1 = 0.899",0.136 ± 0.0016 kcal/mol
same,excess molar enthalpy,"298.15 K, 5000 kPa, x1 = 0.951",0.0711 ± 0.000956 kcal/mol
same,excess molar enthalpy,"298.15 K, 10000 kPa, x1 = 0.051",0.0813 ± 0.0017 kcal/mol
same,excess molar enthalpy,"298.15 K, 10000 kPa, x1 = 0.099",0.145 ± 0.0021 kcal/mol
same,excess molar enthalpy,"298.15 K, 10000 kPa, x1 = 0.149",0.202 ± 0.00239 kcal/mol
same,excess molar enthalpy,"298.15 K, 10000 kPa, x1 = 0.199",0.248 ± 0.00287 kcal/mol
same,excess molar enthalpy,"298.15 K, 10000 kPa, x1 = 0.25",0.287 ± 0.00311 kcal/mol
same,excess molar enthalpy,"298.15 K, 10000 kPa, x1 = 0.3",0.316 ± 0.00335 kcal/mol
same,excess molar enthalpy,"298.15 K, 10000 kPa, x1 = 0.349",0.337 ± 0.00359 kcal/mol
same,excess molar enthalpy,"298.15 K, 10000 kPa, x1 = 0.399",0.353 ± 0.00382 kcal/mol
same,excess molar enthalpy,"298.15 K, 10000 kPa, x1 = 0.45",0.361 ± 0.00382 kcal/mol
same,excess molar enthalpy,"298.15 K, 10000 kPa, x1 = 0.5",0.362 ± 0.00382 kcal/mol
same,excess molar enthalpy,"298.15 K, 10000 kPa, x1 = 0.55",0.357 ± 0.00382 kcal/mol
same,excess molar enthalpy,"298.15 K, 10000 kPa, x1 = 0.599",0.346 ± 0.00359 kcal/mol
same,excess molar enthalpy,"298.15 K, 10000 kPa, x1 = 0.649",0.33 ± 0.00359 kcal/mol
same,excess molar enthalpy,"298.15 K, 10000 kPa, x1 = 0.7",0.305 ± 0.00335 kcal/mol
same,excess molar enthalpy,[1],0.274 ± 0.00311 kcal/mol
same,excess molar enthalpy,[2],0.237 ± 0.00263 kcal/mol
same,excess molar enthalpy,"298.15 K, 10000 kPa, x1 = 0.849",0.189 ± 0.00237 kcal/mol
same,excess molar enthalpy,"298.15 K, 10000 kPa, x1 = 0.899",0.135 ± 0.00198 kcal/mol
same,excess molar enthalpy,"298.15 K, 10000 kPa, x1 = 0.951",0.0683 ± 0.00158 kcal/mol
same,excess molar enthalpy,"333.15 K, 10000 kPa, x1 = 0.051",0.0961 ± 0.00206 kcal/mol
same,excess molar enthalpy,"333.15 K, 10000 kPa, x1 = 0.099",0.168 ± 0.00237 kcal/mol
same,excess molar enthalpy,"333.15 K, 10000 kPa, x1 = 0.15",0.232 ± 0.00287 kcal/mol
same,excess molar enthalpy,"333.15 K, 10000 kPa, x1 = 0.2",0.287 ± 0.00335 kcal/mol
same,excess molar enthalpy,"333.15 K, 10000 kPa, x1 = 0.25",0.329 ± 0.00359 kcal/mol
same,excess molar enthalpy,"333.15 K, 10000 kPa, x1 = 0.3",0.363 ± 0.00382 kcal/mol
same,excess molar enthalpy,"333.15 K, 10000 kPa, x1 = 0.35",0.389 ± 0.00406 kcal/mol
same,excess molar enthalpy,"333.15 K, 10000 kPa, x1 = 0.399",0.408 ± 0.0043 kcal/mol
same,excess molar enthalpy,"333.15 K, 10000 kPa, x1 = 0.448",0.418 ± 0.0043 kcal/mol
same,excess molar enthalpy,"333.15 K, 10000 kPa, x1 = 0.5",0.422 ± 0.00454 kcal/mol
same,excess molar enthalpy,"333.15 K, 10000 kPa, x1 = 0.548",0.419 ± 0.0043 kcal/mol
same,excess molar enthalpy,"333.15 K, 10000 kPa, x1 = 0.599",0.405 ± 0.0043 kcal/mol
same,excess molar enthalpy,"333.15 K, 10000 kPa, x1 = 0.65",0.384 ± 0.00406 kcal/mol
same,excess molar enthalpy,"333.15 K, 10000 kPa, x1 = 0.7",0.355 ± 0.00382 kcal/mol
same,excess molar enthalpy,"333.15 K, 10000 kPa, x1 = 0.751",0.317 ± 0.00359 kcal/mol
same,excess molar enthalpy,"333.15 K, 10000 kPa, x1 = 0.801",0.271 ± 0.00311 kcal/mol
same,excess molar enthalpy,"333.15 K, 10000 kPa, x1 = 0.85",0.215 ± 0.00263 kcal/mol
same,excess molar enthalpy,"333.15 K, 10000 kPa, x1 = 0.899",0.15 ± 0.00225 kcal/mol
same,excess molar enthalpy,"333.15 K, 10000 kPa, x1 = 0.949",0.0751 ± 0.00182 kcal/mol
COC(C)=O [methyl ethanoate] + CC(C)O,excess molar enthalpy,"298.15 K, 5000 kPa, x1 = 0.1",0.133 ± 0.00191 kcal/mol
same,excess molar enthalpy,"298.15 K, 5000 kPa, x1 = 0.151",0.19 ± 0.00237 kcal/mol
same,excess molar enthalpy,"298.15 K, 5000 kPa, x1 = 0.199",0.235 ± 0.00263 kcal/mol
same,excess molar enthalpy,"298.15 K, 5000 kPa, x1 = 0.249",0.276 ± 0.00311 kcal/mol
same,excess molar enthalpy,"298.15 K, 5000 kPa, x1 = 0.299",0.308 ± 0.00335 kcal/mol
same,excess molar enthalpy,"298.15 K, 5000 kPa, x1 = 0.349",0.334 ± 0.00359 kcal/mol
same,excess molar enthalpy,"298.15 K, 5000 kPa, x1 = 0.401",0.355 ± 0.00382 kcal/mol
same,excess molar enthalpy,"298.15 K, 5000 kPa, x1 = 0.45",0.367 ± 0.00406 kcal/mol
same,excess molar enthalpy,"298.15 K, 5000 kPa, x1 = 0.499",0.374 ± 0.00406 kcal/mol
same,excess molar enthalpy,"298.15 K, 5000 kPa, x1 = 0.55",0.374 ± 0.00406 kcal/mol
same,excess molar enthalpy,"298.15 K, 5000 kPa, x1 = 0.599",0.367 ± 0.00382 kcal/mol
same,excess molar enthalpy,"298.15 K, 5000 kPa, x1 = 0.649",0.352 ± 0.00382 kcal/mol
same,excess molar enthalpy,"298.15 K, 5000 kPa, x1 = 0.7",0.331 ± 0.00359 kcal/mol
same,excess molar enthalpy,"298.15 K, 5000 kPa, x1 = 0.75",0.3 ± 0.00335 kcal/mol
same,excess molar enthalpy,"298.15 K, 5000 kPa, x1 = 0.799",0.262 ± 0.00287 kcal/mol
same,excess molar enthalpy,"298.15 K, 5000 kPa, x1 = 0.851",0.211 ± 0.00234 kcal/mol
same,excess molar enthalpy,"298.15 K, 5000 kPa, x1 = 0.9",0.154 ± 0.00177 kcal/mol
same,excess molar enthalpy,"298.15 K, 5000 kPa, x1 = 0.949",0.0855 ± 0.0011 kcal/mol
same,excess molar enthalpy,"298.15 K, 10000 kPa, x1 = 0.1",0.132 ± 0.00194 kcal/mol
same,excess molar enthalpy,"298.15 K, 10000 kPa, x1 = 0.151",0.19 ± 0.00239 kcal/mol
same,excess molar enthalpy,"298.15 K, 10000 kPa, x1 = 0.201",0.238 ± 0.00287 kcal/mol
same,excess molar enthalpy,"298.15 K, 10000 kPa, x1 = 0.251",0.278 ± 0.00311 kcal/mol
same,excess molar enthalpy,"298.15 K, 10000 kPa, x1 = 0.301",0.31 ± 0.00335 kcal/mol
same,excess molar enthalpy,"298.15 K, 10000 kPa, x1 = 0.351",0.335 ± 0.00359 kcal/mol
same,excess molar enthalpy,"298.15 K, 10000 kPa, x1 = 0.4",0.354 ± 0.00382 kcal/mol
same,excess molar enthalpy,"298.15 K, 10000 kPa, x1 = 0.45",0.366 ± 0.00382 kcal/mol
same,excess molar enthalpy,"298.15 K, 10000 kPa, x1 = 0.501",0.372 ± 0.00406 kcal/mol
same,excess molar enthalpy,"298.15 K, 10000 kPa, x1 = 0.55",0.371 ± 0.00406 kcal/mol
same,excess molar enthalpy,"298.15 K, 10000 kPa, x1 = 0.601",0.363 ± 0.00382 kcal/mol
same,excess molar enthalpy,"298.15 K, 10000 kPa, x1 = 0.651",0.348 ± 0.00382 kcal/mol
same,excess molar enthalpy,"298.15 K, 10000 kPa, x1 = 0.699",0.327 ± 0.00359 kcal/mol
same,excess molar enthalpy,[1],0.296 ± 0.00335 kcal/mol
same,excess molar enthalpy,[2],0.258 ± 0.00287 kcal/mol
same,excess molar enthalpy,"298.15 K, 10000 kPa, x1 = 0.851",0.207 ± 0.00263 kcal/mol
same,excess molar enthalpy,"298.15 K, 10000 kPa, x1 = 0.9",0.15 ± 0.00217 kcal/mol
same,excess molar enthalpy,"298.15 K, 10000 kPa, x1 = 0.949",0.081 ± 0.00174 kcal/mol
same,excess molar enthalpy,"308.15 K, 10000 kPa, x1 = 0.048",0.0745 ± 0.00158 kcal/mol
same,excess molar enthalpy,"308.15 K, 10000 kPa, x1 = 0.097",0.142 ± 0.00208 kcal/mol
same,excess molar enthalpy,"308.15 K, 10000 kPa, x1 = 0.145",0.199 ± 0.00239 kcal/mol
same,excess molar enthalpy,"308.15 K, 10000 kPa, x1 = 0.195",0.251 ± 0.00287 kcal/mol
same,excess molar enthalpy,"308.15 K, 10000 kPa, x1 = 0.243",0.293 ± 0.00335 kcal/mol
same,excess molar enthalpy,"308.15 K, 10000 kPa, x1 = 0.293",0.329 ± 0.00359 kcal/mol
same,excess molar enthalpy,"308.15 K, 10000 kPa, x1 = 0.342",0.357 ± 0.00382 kcal/mol
same,excess molar enthalpy,"308.15 K, 10000 kPa, x1 = 0.392",0.379 ± 0.00406 kcal/mol
same,excess molar enthalpy,"308.15 K, 10000 kPa, x1 = 0.441",0.393 ± 0.00406 kcal/mol
same,excess molar enthalpy,"308.15 K, 10000 kPa, x1 = 0.49",0.4 ± 0.0043 kcal/mol
same,excess molar enthalpy,"308.15 K, 10000 kPa, x1 = 0.541",0.4 ± 0.0043 kcal/mol
same,excess molar enthalpy,"308.15 K, 10000 kPa, x1 = 0.592",0.392 ± 0.00406 kcal/mol
same,excess molar enthalpy,"308.15 K, 10000 kPa, x1 = 0.643",0.376 ± 0.00406 kcal/mol
same,excess molar enthalpy,"308.15 K, 10000 kPa, x1 = 0.693",0.354 ± 0.00382 kcal/mol
same,excess molar enthalpy,"308.15 K, 10000 kPa, x1 = 0.743",0.324 ± 0.00359 kcal/mol
same,excess molar enthalpy,"308.15 K, 10000 kPa, x1 = 0.793",0.283 ± 0.00311 kcal/mol
same,excess molar enthalpy,"308.15 K, 10000 kPa, x1 = 0.897",0.169 ± 0.00229 kcal/mol
same,excess molar enthalpy,"308.15 K, 10000 kPa, x1 = 0.949",0.0908 ± 0.00196 kcal/mol
